# Measurements reported in patent publication US20040157800A1, “Ascorbyl derivatives of carnitines and cosmetic compositions containing same” (priority 2001, published 2004).
# Structures can show the parent of a compound that is named as a salt.
# Experiment: Weight increase, appearance and flowability after exposure to humidity (hygroscopicity)
# Type: physicochemical
# Conditions: for Appearance / Weight increase (%): 60% relative humidity at 25° C. for 42 hours; for Hygroscopicity of the solid (in words): isolated crystalline solid; for Flowability: time needed by a 10-gram sample to pass through a funnel of 4 mm diameter, after 60% relative humidity at 25° C. for 42 hours
# Method: In the following Table 1, the weight increase (%) and the flowability of the compounds of the invention are compared with those of L-carnitine and acetyl L-carnitine inner salts following exposure of the compounds to 60% relative humidity at 25° C. for 42 hours. Reference method:
# Pharmaeuropa November 1996.
Molecule,Appearance,Weight increase (%),Hygroscopicity of the solid (in words),Flowability [s]
"C[N+](C)(C)C[C@H](O)CC(=O)[O-] [L-carnitine Inner salt, L-carnitine inner salt, reference compound]",deliquescent,19,–,–
"CC(=O)O[C@H](CC(=O)[O-])C[N+](C)(C)C [acetyl L-carnitine Inner salt, acetyl L-carnitine inner salt, reference compound]",deliquescent,20,–,–
Acetyl L-Carnitine Magnesium Ascorbyl Phosphate [Example 2],no variation,0.14,non-hygroscopic,6
L-Carnitine Magnesium Ascorbyl Phosphate [Example 1],no variation,0.12,non-hygroscopic,5
